# Measurements from patent publication US20080161232A1, “C5a Receptor Antagonist” (JERINI AG, priority 2005, published 2008).
# Non-standard residues stand in square brackets, D forms with d. Residues, ends and D or L forms follow the SMILES beside them. ξ: configuration not given here. Phe(3-NO2) = N[C@@H](Cc1cccc([N+](=O)[O-])c1)C(=O)O; Phe(3,4-Cl2) = N[C@@H](Cc1ccc(Cl)c(Cl)c1)C(=O)O; Phe(2,4-Cl2) = N[C@@H](Cc1ccc(Cl)cc1Cl)C(=O)O; Phe(2-CF3) = N[C@@H](Cc1ccccc1C(F)(F)F)C(=O)O; Phe(3,4-F2) = N[C@@H](Cc1ccc(F)c(F)c1)C(=O)O; ξTrp(5-Me) = Cc1ccc2[nH]cc(CC(N)C(=O)O)c2c1; Phe(3-Cl) = N[C@@H](Cc1cccc(Cl)c1)C(=O)O; Phe(3-OMe) = COc1cccc(C[C@H](N)C(=O)O)c1; Phe(4-Cl) = N[C@@H](Cc1ccc(Cl)cc1)C(=O)O; Phe(2-Cl) = N[C@@H](Cc1ccccc1Cl)C(=O)O; Phe(3-F) = N[C@@H](Cc1cccc(F)c1)C(=O)O; Phe(4-F) = N[C@@H](Cc1ccc(F)cc1)C(=O)O; 2Nal = N[C@@H](Cc1ccc2ccccc2c1)C(=O)O; Phe(2-F) = N[C@@H](Cc1ccccc1F)C(=O)O; Bta = N[C@@H](Cc1csc2ccccc12)C(=O)O; d(hLeu) = CC(C)CC[C@@H](N)C(=O)O; Cha = N[C@@H](CC1CCCCC1)C(=O)O; Orn = NCCC[C@H](N)C(=O)O
# Target: T1, human C5aR(CD88) (Homo sapiens, UniProt P21730)
# T1 construct: expressed in transfected cells; host or cells: rat basophilic leukemia cells (RBL)
# T1 sequence (P21730 1-350): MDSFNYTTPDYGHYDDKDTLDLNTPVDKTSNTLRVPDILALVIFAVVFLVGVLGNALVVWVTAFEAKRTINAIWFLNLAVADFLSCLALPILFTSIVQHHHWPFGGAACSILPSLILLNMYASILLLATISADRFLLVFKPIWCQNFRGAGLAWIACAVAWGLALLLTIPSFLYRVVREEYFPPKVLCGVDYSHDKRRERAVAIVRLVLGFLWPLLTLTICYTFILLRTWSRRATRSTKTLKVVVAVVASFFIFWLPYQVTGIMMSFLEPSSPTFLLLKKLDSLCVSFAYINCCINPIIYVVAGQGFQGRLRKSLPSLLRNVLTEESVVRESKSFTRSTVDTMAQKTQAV
# Assay: Determination of the IC50 value in an enzyme release assay (functional assay, antagonistic activity)
# Type: cell-based
# Settings: activity (group)
row,SMILES,IC50 [µM]
1,"CC(=O)N[C@@H](Cc1ccccc1)C(=O)N[C@@H](CCCN)C(=O)N1CCC[C@H]1C(=O)N[C@H](CCC(C)C)C(=O)N[C@@H](Cc1cccc(Cl)c1)C(=O)N[C@@H](Cc1ccccc1)C(N)=O [Compound 291, Ac-Phe-Orn-Pro-hle-Mcf-Phe-NH2] (Ac-F[Orn]P[d(hLeu)][Phe(3-Cl)]F-NH2)",0.05 to 0.2

# Same assay, conditions: antagonistic activity; IC50 group in enzyme release assay, RBL cells expressing human C5aR(CD88); read-out: activity (group)
row,SMILES,IC50 [µM]
1,"CC(=O)N[C@@H](Cc1ccccc1)C(=O)N[C@@H](CCCN)C(=O)N1CCC[C@H]1C(=O)N[C@H](CCC(C)C)C(=O)N[C@@H](Cc1csc2ccccc12)C(=O)N[C@@H](Cc1ccc(Cl)cc1Cl)C(N)=O [Compound 277, Ac-Phe-Orn-Pro-hle-Bta-Egy-NH2] (Ac-F[Orn]P[d(hLeu)][Bta][Phe(2,4-Cl2)]-NH2)",0.05 to 0.2
2,"CC(=O)N[C@@H](Cc1ccccc1)C(=O)N[C@@H](CCCN)C(=O)N1CCC[C@H]1C(=O)N[C@H](CCC(C)C)C(=O)N[C@@H](Cc1csc2ccccc12)C(=O)N[C@@H](Cc1ccc(Cl)cc1)C(N)=O [Compound 278, Ac-Phe-Orn-Pro-hle-Bta-Pcf-NH2] (Ac-F[Orn]P[d(hLeu)][Bta][Phe(4-Cl)]-NH2)",0.05 to 0.2
3,"CC(=O)N[C@@H](Cc1ccccc1)C(=O)N[C@@H](CCCN)C(=O)N1CCC[C@H]1C(=O)N[C@H](CCC(C)C)C(=O)N[C@@H](Cc1csc2ccccc12)C(=O)N[C@@H](Cc1ccc(F)cc1)C(N)=O [Compound 279, Ac-Phe-Orn-Pro-hle-Bta-Pff-NH2] (Ac-F[Orn]P[d(hLeu)][Bta][Phe(4-F)]-NH2)",0.05 to 0.2
4,"CC(=O)N[C@@H](Cc1ccccc1)C(=O)N[C@@H](CCCN)C(=O)N1CCC[C@H]1C(=O)N[C@H](CCC(C)C)C(=O)N[C@@H](Cc1csc2ccccc12)C(=O)N[C@@H](Cc1ccccc1)C(N)=O [Compound 280, Ac-Phe-Orn-Pro-hle-Bta-Phe-NH2] (Ac-F[Orn]P[d(hLeu)][Bta]F-NH2)",0.02 to 0.05
5,"CC(=O)N[C@@H](Cc1ccccc1)C(=O)N[C@@H](CCCN)C(=O)N1CCC[C@H]1C(=O)N[C@H](CCC(C)C)C(=O)N[C@@H](Cc1csc2ccccc12)C(=O)N[C@H](Cc1ccccc1)C(=O)O [Compound 281, Ac-Phe-Orn-Pro-hle-Bta-phe-OH] (Ac-F[Orn]P[d(hLeu)][Bta][dF]-OH)",0.05 to 0.2
6,"CC(=O)N[C@@H](Cc1ccccc1)C(=O)N[C@@H](CCCN)C(=O)N1CCC[C@H]1C(=O)N[C@H](CCC(C)C)C(=O)N[C@@H](Cc1csc2ccccc12)C(=O)N[C@@H](Cc1ccc(O)cc1)C(N)=O [Compound 282, Ac-Phe-Orn-Pro-hle-Bta-Tyr-NH2] (Ac-F[Orn]P[d(hLeu)][Bta]Y-NH2)",0.05 to 0.2
7,"CC(=O)N[C@@H](Cc1ccccc1)C(=O)N[C@@H](CCCN)C(=O)N1CCC[C@H]1C(=O)N[C@H](CCC(C)C)C(=O)N[C@@H](Cc1ccc(F)c(F)c1)C(=O)N[C@@H](Cc1ccccc1)C(N)=O [Compound 283, Ac-Phe-Orn-Pro-hle-Dff-Phe-NH2] (Ac-F[Orn]P[d(hLeu)][Phe(3,4-F2)]F-NH2)",0.05 to 0.2
8,"CC(=O)N[C@@H](Cc1ccccc1)C(=O)N[C@@H](CCCN)C(=O)N1CCC[C@H]1C(=O)N[C@H](CCC(C)C)C(=O)N[C@@H](Cc1ccc(Cl)c(Cl)c1)C(=O)N[C@@H](Cc1ccccc1)C(N)=O [Compound 284, Ac-Phe-Orn-Pro-hle-Eaa-Phe-NH2] (Ac-F[Orn]P[d(hLeu)][Phe(3,4-Cl2)]F-NH2)",0.05 to 0.2
9,"CC(=O)N[C@@H](Cc1ccccc1)C(=O)N[C@@H](CCCN)C(=O)N1CCC[C@H]1C(=O)N[C@H](CCC(C)C)C(=O)NC(Cc1c[nH]c2ccc(C)cc12)C(=O)N[C@@H](Cc1ccccc1)C(N)=O (stereo partly drawn) [Compound 285, Ac-Phe-Orn-Pro-hle-Egc-Phe-NH2] (Ac-F[Orn]P[d(hLeu)][ξTrp(5-Me)]F-NH2)",0.05 to 0.2
10,"CC(=O)N[C@@H](Cc1ccccc1)C(=O)N[C@@H](CCCN)C(=O)N1CCC[C@H]1C(=O)N[C@H](CCC(C)C)C(=O)N[C@@H](Cc1ccc(Cl)cc1Cl)C(=O)N[C@@H](Cc1ccccc1)C(N)=O [Compound 286, Ac-Phe-Orn-Pro-hle-Egy-Phe-NH2] (Ac-F[Orn]P[d(hLeu)][Phe(2,4-Cl2)]F-NH2)",0.05 to 0.2
11,"CC(=O)N[C@@H](Cc1ccccc1)C(=O)N[C@@H](CCCN)C(=O)N1CCC[C@H]1C(=O)N[C@H](CCC(C)C)C(=O)N[C@@H](Cc1cccc([N+](=O)[O-])c1)C(=O)N[C@@H](Cc1ccccc1)C(N)=O [Compound 287, Ac-Phe-Orn-Pro-hle-Egz-Phe-NH2] (Ac-F[Orn]P[d(hLeu)][Phe(3-NO2)]F-NH2)",0.05 to 0.2
12,"CC(=O)N[C@@H](Cc1ccccc1)C(=O)N[C@@H](CCCN)C(=O)N1CCC[C@H]1C(=O)N[C@H](CCC(C)C)C(=O)N[C@@H](Cc1cccc(Cl)c1)C(=O)N[C@@H](Cc1ccc2ccccc2c1)C(N)=O [Compound 288, Ac-Phe-Orn-Pro-hle-Mcf-2Ni—NH2] (Ac-F[Orn]P[d(hLeu)][Phe(3-Cl)][2Nal]-NH2)",0.05 to 0.2
13,"CC(=O)N[C@@H](Cc1ccccc1)C(=O)N[C@@H](CCCN)C(=O)N1CCC[C@H]1C(=O)N[C@H](CCC(C)C)C(=O)N[C@@H](Cc1cccc(Cl)c1)C(=O)N[C@@H](CC1CCCCC1)C(N)=O [Compound 289, Ac-Phe-Orn-Pro-hle-Mcf-Cha-NH2] (Ac-F[Orn]P[d(hLeu)][Phe(3-Cl)][Cha]-NH2)",0.02 to 0.05
14,"CC(=O)N[C@@H](Cc1ccccc1)C(=O)N[C@@H](CCCN)C(=O)N1CCC[C@H]1C(=O)N[C@H](CCC(C)C)C(=O)N[C@@H](Cc1cccc(Cl)c1)C(=O)N[C@@H](Cc1ccc(F)cc1)C(N)=O [Compound 290, Ac-Phe-Orn-Pro-hle-Mcf-Pff-NH2] (Ac-F[Orn]P[d(hLeu)][Phe(3-Cl)][Phe(4-F)]-NH2)",0.05 to 0.2
15,"CC(=O)N[C@@H](Cc1ccccc1)C(=O)N[C@@H](CCCN)C(=O)N1CCC[C@H]1C(=O)N[C@H](CCC(C)C)C(=O)N[C@@H](Cc1cccc(F)c1)C(=O)N[C@@H](Cc1ccccc1)C(N)=O [Compound 292, Ac-Phe-Orn-Pro-hle-Mff-Phe-NH2] (Ac-F[Orn]P[d(hLeu)][Phe(3-F)]F-NH2)",0.05 to 0.2
16,"COc1cccc(C[C@H](NC(=O)[C@@H](CCC(C)C)NC(=O)[C@@H]2CCCN2C(=O)[C@H](CCCN)NC(=O)[C@H](Cc2ccccc2)NC(C)=O)C(=O)N[C@@H](Cc2ccccc2)C(N)=O)c1 [Compound 293, Ac-Phe-Orn-Pro-hle-Mmy-Phe-NH2] (Ac-F[Orn]P[d(hLeu)][Phe(3-OMe)]F-NH2)",0.05 to 0.2
17,"CC(=O)N[C@@H](Cc1ccccc1)C(=O)N[C@@H](CCCN)C(=O)N1CCC[C@H]1C(=O)N[C@H](CCC(C)C)C(=O)N[C@@H](Cc1ccccc1Cl)C(=O)N[C@@H](Cc1ccccc1)C(N)=O [Compound 294, Ac-Phe-Orn-Pro-hle-Ocf-Phe-NH2] (Ac-F[Orn]P[d(hLeu)][Phe(2-Cl)]F-NH2)",0.05 to 0.2
18,"CC(=O)N[C@@H](Cc1ccccc1)C(=O)N[C@@H](CCCN)C(=O)N1CCC[C@H]1C(=O)N[C@H](CCC(C)C)C(=O)N[C@@H](Cc1ccccc1F)C(=O)N[C@@H](Cc1ccccc1)C(N)=O [Compound 295, Ac-Phe-Orn-Pro-hle-Off-Phe-NH2] (Ac-F[Orn]P[d(hLeu)][Phe(2-F)]F-NH2)",0.05 to 0.2
19,"CC(=O)N[C@@H](Cc1ccccc1)C(=O)N[C@@H](CCCN)C(=O)N1CCC[C@H]1C(=O)N[C@H](CCC(C)C)C(=O)N[C@@H](Cc1ccccc1C(F)(F)F)C(=O)N[C@@H](Cc1ccccc1)C(N)=O [Compound 296, Ac-Phe-Orn-Pro-hle-Otf-Phe-NH2] (Ac-F[Orn]P[d(hLeu)][Phe(2-CF3)]F-NH2)",0.05 to 0.2
